# Columns and labels:
# [1] = system: bean rust (Uromyces appendiculatus); assay: Greenhouse control of bean rust versus […] OPTIMUM and chemical agents; assay type: in vivo; settings: bean plants, 200 k conidia/ml, ten days after infection; biologicals 1×10^8 cfu/ml, Tebuconazole 50 g a.i./ha, Chlorothalonil 500 g a.i./ha; 0.1875% TACTIC in all
# [2] = system: bean rust (Uromyces appendiculatus); assay: Greenhouse control of bean rust at varying rates of inoculation; assay type: in vivo; settings: 200K conidia/ml, ten days after infection, biologicals 1×10^8 cfu/ml, Tebuconazole 50 g a.i./ha
# Description: The formulations and treatment methods used were the same as described for the previous experiment. One day after treatment application, the test plants were infected with bean rust (Uromyces appendiculatus) at an inoculation rate ranging from 50 k to 300 k conidia/ml. Ten days after infection with bean rust (Uromyces appendiculatus) the percent of disease control was evaluated for each of: […]
SMILES,Percent Disease Control [1] [%],Percent Disease Control [2] [a %]
N#Cc1c(Cl)c(Cl)c(Cl)c(C#N)c1Cl [Chlorothalonil],100,
CC(C)(C)C(O)(CCc1ccc(Cl)cc1)Cn1cncn1 (stereo not drawn) [Tebuconazole],100,100
